Test [1] deals with NS3/4A protease gt 1b (Hepatitis C virus genotype 1b, UniProt P26663). The test can be described thus: HCV NS3 protease time-resolved fluorescence (TRF) assay, NS3/4A inhibitory activity (Ki), gt 1b. The class given is biochemical. As to conditions: genotype 1b NS3/4A; read-out: Enzyme Activity gt 1b Ki. The method, then:
(§1) The HCV NS3 protease inhibitory activity of the present compounds may be tested using assays known in the art. One such assay is HCV NS3 protease time-resolved fluorescence (TRF) assay as described below and in International Patent Application Publication WO2006/102087. Other examples of such assays are described in e.g., International Patent Application Publication WO2005/046712. HCV NS3 protease inhibitors, such as those described herein have a Ki less than 50 μM, such as less than 10 μM, and less than 100 nM. Ki is determined by an NS3 protease assay. The assay is performed in a final volume of 100 μl in assay buffer containing 50 mM HEPES, pH 7.5, 150 mM NaCl, 15% glycerol, 0.15% TRITON X-100, 10 mM DTT, and 0.1% PEG 8000. NS3 protease is pre-incubated with various concentrations of inhibitors in DMSO for 30 minutes. The reaction is initiated by adding the TRF peptide substrate (final concentration 100 nM). NS3 mediated hydrolysis of the substrate is quenched after 1 hour at room temperature with 100 μl of 500 mM MES, pH 5.5. Product fluorescence is detected using either a VICTOR V2 or FUSION fluorophotometer (Perkin Elmer Life and Analytical Sciences) with excitation at 340 nm and emission at 615 nm with a 400 μs delay. Testing concentrations of different enzyme forms are selected to result in a signal to background ratio (S/B) of 10-30. IC50 values are derived using a standard four-parameter fit to the data. Ki values are derived from IC50 values using the following formula,
(§2) IC50=Ki(1+[S]/KM), Eqn (1),
(§3) where [S] is the concentration of substrate peptide in the reaction and KM is the Michaelis constant. See P. Gallinari et al., 38 BIOCHEM. 5620-32 (1999); P. Gallinari et al., 72 J. VIROL. 6758-69 (1998); M. Taliani et al., 240 ANAL. BIOCHEM. 60-67 (1996).
(§4) One such assay is HCV NS3 protease time-resolved fluorescence (TRF) assay as described below and in Mao et al., Anal Biochem. 373:1-8, 2008 and International Patent Application Publication WO 2006/102087. A NS3 protease assay can be performed, for example, in a final volume of 100 μl assay buffer containing 50 mM HEPES, pH 7.5, 150 mM NaCl, 15% glycerol, 0.15% TRITON X-100, 10 mM DTT, and 0.1% PEG 8000. NS3 and NS4A protease is pre-incubated with various concentrations of inhibitors in DMSO for 30 minutes. The reaction is initiated by adding the TRF peptide substrate (final concentration 100 nM). NS3 mediated hydrolysis of the substrate is quenched after 1 hour at room temperature with 100 μl of 500 mM MES, pH 5.5. Product fluorescence is detected using either a VICTOR V2 or FUSION fluorophotometer (Perkin Elmer Life and Analytical Sciences) with excitation at 340 nm and emission at 615 nm with a 400 μs delay. Testing concentrations of different enzyme forms are selected to result in a signal to background ratio (S/B) of 10-30. IC50 values are derived using a standard four-parameter fit to the data. Ki values are derived from IC50 values using the following formula,
(§5) where [S] is the concentration of substrate peptide in the reaction and KM is the Michaelis constant. See P. Gallinari et al., 38 BIOCHEM. 5620-32 (1999); P. Gallinari et al., 72 J. VIROL. 6758-69 (1998); M. Taliani et al., 240 ANAL. BIOCHEM. 60-67 (1996); Mao et al., Analytical Biochemistry 373: 1-8, 2008. Measuring Compound Inhibitory Potency (Replicon EC50 (nM))

Test [2] addresses NS3/4A protease gt 3a (Hepatitis C virus genotype 3a, UniProt Q81258). Kind of test: HCV NS3 protease time-resolved fluorescence (TRF) assay, NS3/4A inhibitory activity (Ki), gt 3a. The conditions noted are these: genotype 3a NS3/4A; read-out: Enzyme Activity gt 3a Ki. The class given is biochemical. How it is done:
as §1, §2, §3, §4, §5

Test [3] relates to gt 1b Replicon. Kind of test: HCV replicon assay, compound inhibitory potency (Replicon EC50). As to conditions: Hepatitis C virus, GT1B. Type of test: cell-based. The method, then:
Measurement of inhibition by compounds was performed using the HCV replicon system. Several different replicons encoding different HCV genotypes or mutations were used. In addition, potency measurements were made using different formats of the replicon assay, including different ways of measurements and different plating formats. See Jan M. Vrolijk et al., A replicons-based bioassay for the measurement of interferons in patients with chronic hepatitis C, 110 J. VIROLOGICAL METHODS 201 (2003); Steven S. Carroll et al., Inhibition of Hepatitis C Virus RNA Replication by 2′-Modified Nucleoside Analogs, 278(14) J. BIOLOGICAL CHEMISTRY 11979 (2003). However, the underlying principles are common to all of these determinations, and are outlined below.
Stable neomycin phosphotransferase encoding replicon-harboring cell lines were used, so all cell lines were maintained under G418 selection prior to the assay. In some cases the cell lines encoded a luciferase:Neor fusion and could be assayed either directly by determination of RNA copy number, or indirectly through measurement of the luciferase activity.
To initiate an assay, replicon cells were plated in the presence of a dilution series of test compound in the absence of G418. Typically, the assays were performed in a 96-well plate format for manual operation, or a 384 well plate in an automated assay. Replicon cells and compound were incubated for 24-48 hours, depending on the assay. At the end of the assay, cells are washed free of media and compound and then lysed. For direct quantitation, RNA levels were measured by ^32P-probe hybridization and protection, or in a TAQMAN based assay and normalized to cellular cyclophilin A RNA levels. In some cases, luciferase activity was measured using a conventional luciferase assay. In all cases EC50 determinations were calculated as a percent of a DMSO control by fitting the data to a four parameter fit function.
In general terms: In antiviral work, replicon cells carry a viral genome segment that copies itself.

For test [4], the target named is NS3/4A protease gt 1b A156V (Hepatitis C virus genotype 1b, UniProt P26663, A1182V). The test can be described thus: HCV NS3 protease time-resolved fluorescence (TRF) assay, NS3/4A inhibitory activity (Ki), gt 1b A156V mutant. Type of test: biochemical, hepatitis C virus (HCV). How it is done:
as §1, §2, §3, §4, §5

8 compounds from US20130178413A1, “HCV NS3 PROTEASE INHIBITORS” (priority 2010, published 2013) can be followed below.

Like-named read-outs stand apart in the source and are kept apart here.

In the case of `C=C[C@@H]1C[C@]1(NC(=O)[C@@H]1C[C@@H]2CN1C(=O)[C@H](C(C)(C)C)NC(=O)O[C@@]1(C)C[C@@H]1CCCCCc1nc3ccccc3nc1O2)C(=O)NS(=O)(=O)C1CC1` [Example I-9, (1aS,5S,8S,10R,22aS)-5-tert-butyl-N-{(1R,2S)-1-[(cyclopropylsulfonyl)carbamoyl]-2-ethenylcyclopropyl}-1a-methyl-3,6-dioxo-1,1a,3,4,5,6,9,10,18,19, 20,21,22,22a-tetra decahydro-8H-7,10-methanocyclopropa[18, 19][1,10,3,6]dioxadiaza cyclononadecino[11,12-b]quinoxaline-8-carboxamide], the values for the inhibitory constant (Ki) in test [1] and in test [2] were 0.06 nM and 12.5 nM, respectively.
With `CC[C@@H]1C[C@]1(NC(=O)[C@@H]1C[C@@H]2CN1C(=O)[C@H](C(C)(C)C)NC(=O)O[C@]1(C)C[C@H]1CCCCCc1nc3ccc(OC)cc3cc1O2)C(=O)NS(=O)(=O)C1CC1` [Example I-11], the EC50 worked out at 4 nM in test [3] (10% Fetal Bovine Serum, read-out: gt 1b Replicon EC50 10% FBS) and 7 nM in test [3] (50% Normal Human Serum, read-out: gt 1b Replicon EC50 50% NHS). Also, the Ki in test [1] came to 0.03 nM; in test [2] it was 0.5 nM.
In the case of `C=C[C@@H]1C[C@]1(NC(=O)[C@@H]1C[C@@H]2CN1C(=O)[C@H](C(C)(C)C)NC(=O)O[C@@]1(C)C[C@@H]1CC/C=C/c1cccc3c1CN(C3)C(=O)O2)C(=O)NS(=O)(=O)C1CC1` [Example I-14, (1aS,5S,8S,10R,19E,22aS)-5-tert-butyl-N-{(1R,2S)-1-[(cyclopropylsulfonyl)carbamoyl]-2-ethenylcyclopropyl}-1a-methyl-3,6,12-trioxo-1,1a,3,4,5,6,9, 10,14,21,22,22a-dodecahydro-8H-7,10:13,15-dimethano cyclopropa[n][4,13,2,8, 11]benzodioxatriaza cyclohenicosine-8(12H)-carboxamide], the Ki in test [1] turned out to be 0.08 nM; in test [4], 6.3 nM; in test [2] it was 112 nM.
Turning to `C=C[C@@H]1C[C@]1(NC(=O)[C@@H]1C[C@@H]2CN1C(=O)[C@H](C(C)(C)C)NC(=O)O[C@]1(C)C[C@H]1CC/C=C/c1cccc3c1CN(C3)C(=O)O2)C(=O)NS(=O)(=O)C1CC1` [Example I-15, (1aR,5S,8S,10R,19E,22aR)-5-tert-butyl-N-{(1R,2S)-1-[(cyclopropylsulfonyl)carbamoyl]-2-ethenylcyclopropyl}-1a-methyl-3,6,12-trioxo-1,1a,3,4,5,6,9, 10,14,21,22,22a-dodecahydro-8H-7,10: 13,15-dimethanocyclo propa[n][4,13,2,8,11] benzodioxatriazacyclo henicosine-8(12H)-carboxamide], the Ki in test [1] was found to be 0.09 nM; in test [4], 8.9 nM; in test [2], 93.5 nM.
Taken in the same sequence, the figures for `C=C[C@@H]1C[C@]1(NC(=O)[C@@H]1C[C@@H]2CN1C(=O)[C@H](C1CCCC1)NC(=O)O[C@]1(C)CCC[C@H]1CC/C=C/Cc1c(nc3ccccc3c1OCc1ccccc1)O2)C(=O)NS(=O)(=O)C1CC1` [Example I-17, (3aR,7S,10S,12R,21E, 24aS)-19-(benzyloxy)-7-cyclopentyl-N-{(1R,2S)-1-[(cyclopropylsulfonyl)carbamoyl]-2-ethenylcyclopropyl}-3a-methyl-5,8-dioxo-1,2,3,3a,5,6,7,8,11,12, 20,23,24,24a-tetradeca hydro-10H-9,12-methanocyclopenta[18, 19][1,10,3,6]dioxadiaza cyclononadecino[11,12-b]quinoline-10-carboxamide] were 0.07 nM, 9.6 nM and 27.9 nM.
For `C=C[C@@H]1C[C@]1(NC(=O)[C@@H]1C[C@@H]2CN1C(=O)[C@H](C(C)(C)C)NC(=O)O[C@]1(C)C[C@H]1CCCCc1cccc3c1CN(C3)C(=O)O2)C(=O)NS(=O)(=O)C1CC1` [Example I-20, (1aR,5S,8S,10R,22aR)-5-tert-butyl-N-{(1R,2S)-1-[(cyclopropylsulfonyl)carbamoyl]-2-ethenylcyclopropyl}-1a-methyl-3,6,12-trioxo-1,1a,3,4,5,6,9, 10,14,19,20,21,22,22a-tetradecahydro-8H-7,10:13,15-dimethano cyclopropa[n][4,13,2,8, 11]benzodioxatriaza cyclohenicosine-8(12H)-carboxamide], the results for the Ki in test [1], in test [4] and in test [2] were 0.02 nM, 27.2 nM and 58.3 nM, respectively.
Taken in the same sequence, the figures for `C=C[C@@H]1C[C@]1(NC(=O)[C@@H]1C[C@@H]2CN1C(=O)[C@H](C(C)(C)C)NC(=O)O[C@@]1(C)C[C@@H]1CCCCc1cccc3c1CN(C3)C(=O)O2)C(=O)NS(=O)(=O)C1CC1` [Example I-21, (1aS,5S,8S,10R,22aS)-5-tert-butyl-N-{(1R,2S)-1-[(cyclopropylsulfonyl)carbamoyl]-2-ethenylcyclopropyl}-1a-methyl-3,6,12-trioxo-1,1a,3,4,5,6,9,10,14,19,20,21,22,22a-tetradecahydro-8H-7,10:13,15-dimethano cyclopropa[n][4,13,2,8, 11]benzodioxatriaza cyclohenicosine-8(12H)-carboxamide] were 1.4 nM, 8.1 nM and 300 nM.
Taken in the same sequence, the figures for `C=C[C@@H]1C[C@]1(NC(=O)[C@@H]1C[C@@H]2CN1C(=O)[C@H](C1CCCC1)NC(=O)O[C@@]1(C)C[C@@H]1CC/C=C/Cn1c(nc3cc(C)ccc3c1=O)O2)C(=O)NS(=O)(=O)C1CC1` [Example I-22, (1aS,5S,8S,10R,20E,23aS)-5-cyclopentyl-N-{(1R,2S)-1-[(cyclopropylsulfonyl)carbamoyl]-2-ethenylcyclopropyl}-1a,14-dimethyl-3,6,17-trioxo-1,1a,3,4,5,6,9,10,19,22,23,23a-dodecahydro-8H,17H-7,10-methano cyclopropa[18,19] [1,10,3,6,12]dioxatriaza cyclononadecino[11,12-b]quinazoline-8-carboxamide] were 0.3 nM, 135 nM and 82.2 nM.

One may read the Ki as the equilibrium dissociation constant of an inhibitor or competing ligand from its target. By EC50 is commonly meant the concentration giving half of the maximal effect.
